These compounds were tested against T1, Prostatic acid phosphatase (Homo sapiens, UniProt P15309) (assay: Inhibition of human prostatic acid phosphatase was determined as inhibition of the hydrolysis of tyrosine phosphate).
T1 sequence (P15309 whole entry): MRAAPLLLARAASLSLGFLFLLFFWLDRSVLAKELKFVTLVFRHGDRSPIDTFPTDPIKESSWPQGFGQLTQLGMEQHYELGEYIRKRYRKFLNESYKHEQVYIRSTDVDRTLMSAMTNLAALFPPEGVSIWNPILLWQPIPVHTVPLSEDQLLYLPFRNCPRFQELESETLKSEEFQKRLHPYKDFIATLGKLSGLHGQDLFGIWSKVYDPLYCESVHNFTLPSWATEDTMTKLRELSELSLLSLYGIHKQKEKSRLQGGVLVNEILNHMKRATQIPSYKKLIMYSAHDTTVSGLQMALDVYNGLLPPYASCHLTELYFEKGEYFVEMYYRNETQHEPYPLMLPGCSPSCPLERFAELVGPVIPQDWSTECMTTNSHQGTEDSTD
O=P(O)(O)C1c2ccccc2Oc2ccccc21 showed an IC50 of 22 µM.
For O=P(O)(O)C(Cc1ccc(-c2ccccc2)cc1)c1ccccc1 (configuration not stated), the IC50 was 16 µM.
In the case of O=P(O)(O)C1c2ccccc2-c2ccccc21, the IC50 is reported as greater than 500 µM.
O=P(O)(O)C1c2ccccc2Sc2ccccc21 gave an IC50 greater than 100 µM.
Compound O=P(O)(O)C(c1ccccc1)c1ccccc1 has an IC50 of 142 µM.
With O=P(O)(O)C(c1ccccc1)c1ccc(-c2ccccc2)cc1 (configuration not stated) the IC50 was 67 µM.
Compound O=P(O)(O)C1c2ccccc2CCc2ccccc21 has an IC50 of 94 µM.
O=P(O)(O)C(c1ccc(-c2ccccc2)cc1)c1ccc(-c2ccccc2)cc1 gave an IC50 of 70 µM.
O=P(O)(O)C1c2ccccc2C=Cc2ccccc21 was tested, and the IC50 was greater than 100 µM.
For O=P(O)(O)C(CCc1ccccc1)c1ccccc1 (configuration not stated), the IC50 was 14 µM.
Work on O=P(O)(O)Cc1cccc(C(F)(F)F)c1 yielded an IC50 of 88 µM.
O=P(O)(O)Cc1ccccc1 [BENZYLPHOSPHONIC ACID] showed an IC50 greater than 500 µM.

Source: ChEMBL document CHEMBL1128966, “Benzylphosphonic acid inhibitors of human prostatic acid phosphatase” (Bioorg Med Chem Lett, 1996)
